From US20260028364A1, “CATIONIC CHROMENONES AND THEIR USE IN ONCOLOGY” (FLORATEK PHARMA S.A., priority 2022, published 2026) come the findings set out here.

Assay [1] deals with A2058 melanoma tumor cells. As to the kind of experiment: In vivo tumour inhibition, A2058 melanoma xenograft. Further details: species or system Balb-c/nude mouse. On the procedure:
The A2058 tumor cells were maintained in vitro in DMEM medium supplemented with 10% fetal bovine serum and 1% Anti-Anti at 37° C. in an atmosphere of 5% CO2 in air. The tumor cells were routinely subcultured twice weekly.
Each Balb-c/nude mouse was inoculated subcutaneously at the right flank with A2058 melanoma tumor cells (5×10^6+Matrigel) in 0.2 ml of PBS for tumor development. 10 animals per group were randomized when the average tumor volume reached 74 mm^3. Test compounds were prepared as DMSO stocks and diluted in the injection vehicle before administration. The treatment was administered every other day (QOD) as a peritumoral injection. Vehicle composition was 4% DMSO, 5% ethanol, 20% PEG200, 71% saline. Dosing volume for all groups: 5 mL/kg.
Tumor volume was measured twice weekly in two dimensions using a caliper, and the volume was expressed in mm^3 using the formula: V=0.5a×b^2 where a and b are the long and short diameters of the tumor, respectively. The tumor size was then used for calculations of T/C value: The T/C value (in percent) is an indication of antitumor effectiveness; T and Care the mean volumes of the treated and control groups, respectively, on a given day.
One-way ANOVA was performed to compare tumor volume among treated groups and vehicle group, all data were analyzed using GraphPad Prism 5.0. p<0.05 was considered to be statistically significant.

For assay [2], the system named is JAK/STAT. Description: SelectScreen CellSensor pathway inhibition, JAK/STAT. The assay is classed as cell-based. Particulars: Homo sapiens; ISRE-bla Jurkat, stimulus IFN-alpha. The protocol:
(§1) Inhibition of various cellular pathways known to be involved in malignancy was tested using the SelectScreen Cell-based Pathway Profiling GeneBLAzer™ cell signaling pathway specific CellSensor™ cell lines ((Thermo Fisher). The assay is based on a beta-lactamase reporter activity which is modulated and can be measured quantitatively and selectively with the LiveBLAzer™-FRET B/G Loading Substrate. SelectScreen Cell-Based Pathway Profiling Service uses XLfit from IDBS. The dose response curve is curve fit to model number 205 (sigmoidal dose-response model). Custom logic was built by Thermo Fisher for the data analysis tool to address the different compound characteristics that can be observed with functional assays.
JAK/STAT—ISRE-bla HEK 293T—Inhibitor Screen, Activated by IFN-Alpha
ISRE-bla HEK 293T cells are thawed and resuspended in Assay Media (OPTI-MEM, 0.5% dialyzed FBS, 0.1 mM NEAA, 1 mM Sodium Pyruvate, 100 U/mL/[…] Pen/Strep) to a concentration of 625,000 cells/mL. 32 μL of cell suspension is added to each well of a 384-well TC-Treated assay plate. Cells in Assay Media are incubated for 16-24 hours in the plate at 37° C./5% CO2 in a humidified incubator. […] 4 μL of 10× control activator IFN-alpha at the pre-determined EC80 concentration is added to wells containing the control inhibitor or compounds. […] The plate is read on a fluorescence plate reader.

For assay [3], the system named is Toll-like Receptor (TLR4). As to the kind of experiment: SelectScreen CellSensor pathway inhibition, Toll-like Receptor (TLR4). The format is cell-based. Particulars: Homo sapiens; NFkB-bla THP-1, stimulus LPS. The protocol:
as §1
Toll-like Receptor (TLR4)—NFKB-bla THP-1—Inhibitor Screen, Activated by LPS
NFKB-bla THP-1 cells are thawed and resuspended in Assay Media (RPMI, 0.5% dialyzed FBS, 0.1 mM NEAA, 1 mM Sodium Pyruvate, 100 U/mL/[…] Pen/Strep) to a concentration of 625,000 cells/mL. 32 μL of cell suspension is added to each well of a 384-well TC-Treated assay plate. Cells in Assay Media are incubated for 16-24 hours in the plate at 37° C./5% CO2 in a humidified incubator. […] The plate is read on a fluorescence plate reader.

In assay [4] the test system is Raji. Description: CellTiter-Glo cell viability, Raji. The format is cell-based. Particulars: Homo sapiens; Raji cells, 72 h with compound. The protocol:
Antitumor activity against a panel of cancer cell lines Antitumor activity of the compounds was assessed by using the CellTiter-Glow® Luminescent Cell Viability assay (Promega #G7572) according to the manufacturer's instructions. The compounds were tested at 5 or 6 concentrations in 1:2 dilution increments (highest concentration 10 µM) in triplicate well conditions.
Tumor cells were grown at 37° C. in a humidified atmosphere with 5% CO2 in RPMI 1640 or DMEM medium, supplemented with 10% (v/v) fetal calf serum and 50 μg/ml gentamicin for up to 20 passages, and were passaged once or twice weekly. Cells were harvested using TrypLE or PBS buffer containing 1 mM EDTA, and the percentage of viable cells is determined using a cell counter.
Cells were harvested from exponential phase cultures, counted and plated in 96 well flat-bottom microtiter plates at a cell density depending on the cell line's growth rate (4,000-20,000 cells/well depending on the cell line's growth rate) in RPMI 1640 or DMEM medium supplemented with 10% (v/v) fetal calf serum and 50 μg/ml gentamicin (140 μl/well). Cultures were incubated at 37° C. and 5% CO2 in a humidified atmosphere. […] Viability of cells was quantified by the CellTiter-Glow® Luminescent Cell Viability assay (Promega #G7572). Luminescence was measured with the microplate luminometer (En Vision Perkin Elmer). […]

Setting [5] is: 16 mg/kg peritumoral QOD, 6 injections, day 20 after treatment start.

The T/C is the result in the treated group divided by that in the control group, in per cent. One may read the TGI as how far tumour growth fell short of that in controls. Higher therefore signals a stronger effect on the tumour. Usually IC50 stands for the point on the concentration scale where inhibition reaches its midpoint.

Regarding `COc1ccc2c(=O)c(-c3ccc(CCCC[P+](c4ccccc4)(c4ccccc4)c4ccccc4)cc3)coc2c1OC.[Br-]` [SND470, (4-(4-(7,8-Dimethoxy-4-oxo-4H-chromen-3-yl)phenyl)butyl)triphenylphosphonium bromide], in assay [1] (setting [5]), the T/C amounted to 39.2%. The inhibition of tumour growth (TGI) in assay [1] (setting [5]) was 62.8%. Also, the “Tumor Volume” value in assay [1] (16 mg/kg peritumoral QOD, 6 injections, day 20 after treatment start, mean ± SEM) was found to be 886 ± 127 mm^3. Besides, the “activity in inhibiting A2058 melanoma cell line in vivo” value in assay [1] (nude mouse xenograft model of melanoma) is “significant activity”. The IC50 in assay [2] came to 360 nM; in assay [3] it was 560 nM; in assay [4], 530 nM.
